Reference: patent US11434205B2, “Substituted imidazole carboxylate derivatives and the use thereof” (priority 2018, dated 2022)
Read-outs that look alike come from different tables or passages of the source.

How the values were obtained:
rats [1] = test: Loss of righting reflexes (LORR) assay in rats, ED50 by up and down method; assay type: in vivo, rat; conditions: tail vein, class symbols; for ED50: Rattus norvegicus
Outline: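 Adult male Sprague-Dawley rats (250-300 g) dosed i.v. via tail vein at 0.1 mL/s. Anesthesia scored as loss of righting reflex lasting >30 s; ED50 derived by up-and-down method.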

rats [2] = test system: rats
Description: Adult male Sprague-Dawley rats (250-300 g) were selected for the experiment. […] The anesthesia effects of the compounds were assessed in rats using a LORR assay and a period >30 s was considered as an indicator of general anesthesia. Then the up and down method was used to determine 50% effective dose (ED50). The drugs were administered through the tail vein of rats in a volume of 0.6 mL and at a rate of 0.1 mL/s.

rats [3] = test: Pharmacological characteristics at equivalent doses (2×ED50) in rats; conditions: 2×ED50, tail vein; for Adverse reactions: Red urine (incidence): DMSO solution (DMSO alone 10/10); for Onset time: time of LORR; for Adverse reactions: Tremor (incidence): animals affected/animals
Outline: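 Adult male Sprague-Dawley rats (250-300 g, n=8) received each drug at twice its ED50 via tail vein (0.6 mL at 0.1 mL/s). Onset of anesthesia taken as time to LORR.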

rats [4] = assay type: in vivo, rat; conditions: rats of the MAP/HR figures, 2×ED50, tail vein; same value in min
Outline: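 Rats implanted with telemetry (left ventricular and abdominal aortic catheters, ECG leads) at least one week before recording; compounds given via lateral tail-vein catheter. MAP and HR sampled every 15 s for 30 min before and after dosing to judge hemodynamic stability.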

rats [5] = conditions: continuous tail vein infusion at 2×MIR, LORR maintained 1 hour, Table D4
Description: Pharmacological Effects of the Compounds on Continuous Infusion in Rats
Adult male Sprague-Dawley rats with body weight ranging from 250 to 300 gm were selected for continuous infusion test. […] Time to recovery of righting reflex from stopping infusion, and time to fully awake from stopping infusion were recorded.

rats [6] = assay type: in vivo, rat; conditions: rats of the MAP/HR figures, 2×ED50, tail vein

| SMILES | ED50 (rats [1]) [mg/kg] | Approximate therapeutic index (rats [2]) | Minimal lethal dose (rats [2]) [mg/kg] | Righting reflex duration (rats [3]) [min] | Adverse reactions: Red urine (incidence) (rats [3]) | Onset time (rats [3]) [min] | recovery time of the test animals' righting reflex (rats [4]) [min] | Onset time (rats [5]) [min] | Recovery time after stopping infusion (rats [5]) [min] | Types and incidence of adverse reactions (rats [5]) | recovery time of the test animals' righting reflex (rats [6]) [s] | Adverse reactions: Restlessness (incidence) (rats [3]) | Adverse reactions: Tremor (incidence) (rats [3]) | Adverse reactions: Muscle twitching (incidence) (rats [3]) | Adverse reactions: Tongue stretching (incidence) (rats [3]) | ED50 (mg/kg) (rats [1]) | Sedation duration (mg/kg) (rats [3]) |
| --- | --- | --- | --- | --- | --- | --- | --- | --- | --- | --- | --- | --- | --- | --- | --- | --- | --- |
| C#CC1(OC(=O)c2cncn2[C@H](C)c2ccccc2)CCC1 [Compound D1] | 0.1 to 0.5 | >14 | >6 | 4.28 ± 1.78 | Red urine (8/8) | 0.26 ± 0.10 | 13.08 | 3 to 4 | 11 to 14 | Tremor (2/6) | 785 | – | – | – | – | – | – |
| C#CC1(OC(=O)c2cncn2[C@H](C)c2ccccc2)COC1 [Compound D3] | 0.5 to 1 | >10 | >8 | 1.05 ± 0.29 | urine (8/8) | 0.19 ± 0.05 | 1.27 | 2 to 3 | 7 to 9 | Restlessness (2/6), Tremor (3/6) | 76 | Restlessness (4/8), Red | – | – | – | – | – |
| C#CC1(COC(=O)c2cncn2[C@H](C)c2ccccc2)CCC1 [Compound D10] | 0.5 to 1 | >12 | >6 | 6.04 ± 2.27 | (8/8) | 0.14 ± 0.03 | 10.08 | 3 to 4 | 13 to 17 | Tremor (6/6) | 605 | – | Tremor (2/8), Red urine | – | – | – | – |
| CC#CC(C)OC(=O)c1c(F)ncn1[C@H](C)c1ccccc1 (stereo partly drawn) [Compound E16] | 0.1 to 0.5 | >20 | >4 | 3.59 ± 1.22 | (8/8) | 0.30 ± 0.09 | 3.33 | – | – | – | 200 | – | – | – | – | – | – |
| CC#CC(C)(C)OC(=O)c1c(F)ncn1[C@H](C)c1ccccc1 [Compound E17] | 0.1 to 0.5 | >32 | >9 | 3.12 ± 1.61 | (8/8) | 0.26 ± 0.07 | 3.27 | – | – | – | 196 | – | – | (1/8), | – | – | – |
| C=C=CC(C)OC(=O)c1c(F)ncn1[C@H](C)c1ccccc1 (stereo partly drawn) [Compound E18] | 0.01 to 0.1 | >20 | >1 | 2.51 ± 1.69 | (8/8) | 0.40 ± 0.20 | 2.63 | – | – | – | 158 | – | – | – | – | – | – |
| C=C=CC(C)(C)OC(=O)c1c(F)ncn1[C@H](C)c1ccccc1 [Compound E19] | 0.01 to 0.1 | >40 | >4 | 0.80 ± 0.30 | urine (8/8) | 0.34 ± 0.13 | 0.93 | – | – | – | 56 | – | (3/8), Red | – | – | – | – |
| C=CC#CC(C)OC(=O)c1c(F)ncn1[C@H](C)c1ccccc1 (stereo partly drawn) [Compound E20] | 0.01 to 0.1 | >80 | >5 | 0.75 ± 0.21 | (8/8) | 0.51 ± 0.16 | 0.85 | – | – | – | 51 | – | – | – | (2/8), | – | – |
| C=CC#CC(C)(C)OC(=O)c1c(F)ncn1[C@H](C)c1ccccc1 [Compound E21] | – | >12 | >9 | 2.76 ± 2.17 | (8/8) | 0.49 ± 0.20 | 2.58 | – | – | – | 155 | – | – | – | – | C (C indicates that the measured ED50 is in the range of 0.50-1.00 mg/kg (excluding 0.50 mg/kg, including 1.00 mg/kg).) | 7.71 ± 3.03 |
| CCC(CC)OC(=O)c1c(F)ncn1[C@H](C)c1ccccc1 [Compound E22] | – | >30 | >4 | 0.99 ± 0.70 | urine (8/8) | 0.73 ± 0.13 | 1.10 | – | – | – | 66 | – | (4/8), Red | – | – | B (B means that the measured ED50 is in the range of 0.10-0.50 mg/kg (excluding 0.10 mg/kg, including 0.50 mg/kg).) | 5.51 ± 1.13 |
| CC(C)OC(=O)c1c(F)ncn1[C@H](C)c1ccccc1 [Compound E24] | 0.01 to 0.1 | >45 | >4 | 1.00 ± 0.29 | (8/8) | 0.38 ± 0.14 | 1.25 | – | – | – | 75 | – | – | – | – | – | – |
| C#CC(C)(C)OC(=O)c1c(F)ncn1[C@H](C)c1ccccc1 [Compound E25] | 0.1 to 0.5 | >24 | >6 | 2.10 ± 0.86 | urine (8/8) | 0.25 ± 0.09 | 2.23 | – | – | – | 134 | (2/8), Red | – | – | – | – | – |
| C[C@H](c1ccccc1)n1cnc(F)c1C(=O)OCC(C)(C)C [Compound E26] | – | >50 | >4 | 1.45 ± 0.41 | (8/8) | 0.48 ± 0.09 | 1.57 | – | – | – | 94 | – | – | – | – | A (A indicates that the measured ED50 is in the range of 0.01-0.10 mg/kg (including 0.01 and 0.10 mg/kg).) | 6.37 ± 1.31 |
| C[C@H](c1ccccc1)n1cnc(F)c1C(=O)OC1(C)CCC1 [Compound E27] | – | >24 | >6 | 4.13 ± 1.12 | (8/8) | 0.31 ± 0.10 | 4.10 | – | – | – | 246 | – | – | – | – | B (B means that the measured ED50 is in the range of 0.10-0.50 mg/kg (excluding 0.10 mg/kg, including 0.50 mg/kg).) | 10.23 ± 1.60 |
| CCC(C)(C)OC(=O)c1c(F)ncn1[C@H](C)c1ccccc1 [Compound E28] | 0.1 to 0.5 | >16 | >6 | 2.69 ± 1.07 | (8/8) | 0.43 ± 0.19 | 2.5 | – | – | – | 150 | – | – | – | – | – | – |
| CCCC(C)(C)OC(=O)c1c(F)ncn1[C@H](C)c1ccccc1 [Compound E29] | 0.1 to 0.5 | >15 | >6 | 2.74 ± 2.63 | (8/8) | 0.48 ± 0.21 | 2.75 | – | – | – | 165 | – | – | – | – | – | – |
| CCC(C)(CC)OC(=O)c1c(F)ncn1[C@H](C)c1ccccc1 [Compound E30] | 0.1 to 0.5 | >42 | >6 | 1.23 ± 0.58 | (8/8) | 0.60 ± 0.18 | 1.33 | – | – | – | 80 | – | – | – | – | – | – |
